These results are taken from patent US5242934A, “Method for treatment of neurodegenerative diseases” (R. J. Reynolds Tobacco Company, priority 1992, dated 1993).

The target in test [1] is high affinity nicotinic receptors. The test can be described thus: Inhibition of L-[3H]nicotine binding to mouse brain membrane preparations. Set-up: species or system Mice (DBA strain). The conditions noted are these: mouse brain membranes, 2 hr incubation at 4° C., 10 nM L-[3H]nicotine, Ki calculated from IC50 by method of Cheng et al. The method, then:
Mice (DBA strain) were maintained on a 12 hour light/dark cycle and were allowed free access to water and food supplied by Wayne Lab Blox, Madison, Wis. Animals used in the present studies were 60 to 90 days of age and weighed 20 to 25 g. Brain membrane preparations were obtained from pooled brain tissue of both males and females.
Mice were killed by cervical dislocation. Brains were removed and placed on an ice-cold platform. […] Protein was determined by the method of Lowry, et al., J. Biol. Chem., Vol. 193, pp. 265-275 (1951), using bovine serum albumin as the standard.
The binding of L-[^3 H]nicotine was measured using a modification of the method of Romano, et al., Science, Vol. 210, pp. 647-650 (1980) as described previously by Marks, et al., Mol. Pharmacol., Vol. 30, pp. 427-436 (1986). The binding of L-[^3 H]nicotine was measured using a 2 hr. incubation at 4° C. […] Nonspecific binding was determined by inclusion of 10 μM nonradioactive nicotine in the incubations. The inhibition of L-[^3 H]nicotine binding by test compounds was determined by including one of eight different concentrations of the test compound in the incubation. […] Inhibition constants (Ki values) were calculated from the IC50 values using the method of Cheng, et al., Biochem. Pharmacol., Vol. 22, pp. 3099-3108 (1973). […]

Test [2] has as its system synaptosomes from the striatal area of rat brain. The test can be described thus: [3H]-dopamine release from rat striatal synaptosomes. Type of test: biochemical, Sprague-Dawley rats. Particulars: 0.2 ml of a 20 μM solution of ligand, relative to equal concentration of S(-) nicotine. The method, then:
Dopamine release was measured by preparing synaptosomes from the striatal area of rat brain obtained from Sprague-Dawley rats generally according to the procedures set forth by Nagy, et al., J. Neurochem., Vol. 43, pp. 1114-1123 (1984). Striata from 4 rats were homogenized in 2 ml of 0.32M sucrose buffered with 5 mM HEPES (pH 7.5), using a glass-teflon tissue grinder. The homogenate was diluted to 5 ml with additional homogenization solution and centrifuged at 1000×g for 10 min. This procedure was repeated on the new pellet and the resulting supernatant was centrifuged at 12,000×g for 20 min. […] Using this method, 30 to 90 percent of the dopamine was taken up into the synaptosomes, as determined by scintillation counting following filtration through glass fiber filters soaked with 0.5 percent polyethyleneimine. […] After the addition of a 0.2 ml of a 20 μM solution of ligand, the perfusate was collected into scintillation vials at 1 min. intervals and the dopamine released was quantified by scintillation counting. Peaks of radioactivity released above background were summed and the average basal release during that time was subtracted from the total. Release was expressed as a percentage of release obtained with an equal concentration of S(-) nicotine.

Broadly, the Ki is a measure of affinity in units of concentration, obtained from inhibition or displacement. As for `CN1CCCC1c1ccncc1` (centres unmarked) [gamma-nicotine], the Ki in test [1] is 1100 ± 100 nM. Besides, the “Dopamine Release (Percent release relative to S(-) nicotine)” value in test [2] turned out to be 45%.
